In PubChem BioAssay (NCI):
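Values below derive from 48-hour exposures of cells grown in 96-well plates, with endpoints linearly interpolated between the two concentrations bracketing the appropriate inhibition level. At the TGI there is no net growth.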

Legend:
Assay in all cases: inhibition of tumour cell growth, NCI panel, 48 h
RXF 393 renal = test system: RXF 393 renal
LOX IMVI melanoma = test system: LOX IMVI melanoma
HCT-15 colon = test system: HCT-15 colon
UACC-62 melanoma = test system: UACC-62 melanoma
KM12 colon = test system: KM12 colon
NCI-H522 lung = test system: NCI-H522 lung
MDA-N = test system: MDA-N
SK-OV-3 ovarian = test system: SK-OV-3 ovarian
BT-549 breast = test system: BT-549 breast
HOP-92 NSCLC = test system: HOP-92 NSCLC
NCI-H23 lung = test system: NCI-H23 lung
DU-145 prostate = test system: DU-145 prostate
SK-MEL-28 melanoma = test system: SK-MEL-28 melanoma
SK-MEL-5 melanoma = test system: SK-MEL-5 melanoma
HOP-62 NSCLC = test system: HOP-62 NSCLC
TK-10 renal = test system: TK-10 renal
HT29 colon = test system: HT29 colon
MDA-MB-435 = test system: MDA-MB-435
SNB-19 CNS = test system: SNB-19 CNS
SNB-75 CNS = test system: SNB-75 CNS
OVCAR-3 ovarian = test system: OVCAR-3 ovarian
OVCAR-5 ovarian = test system: OVCAR-5 ovarian
SN12C renal = test system: SN12C renal
COLO 205 colon = test system: COLO 205 colon
SW-620 colon = test system: SW-620 colon
SF-268 CNS = test system: SF-268 CNS
SK-MEL-2 melanoma = test system: SK-MEL-2 melanoma
SR leukemia = test system: SR leukemia
SF-539 CNS = test system: SF-539 CNS
OVCAR-8 ovarian = test system: OVCAR-8 ovarian
MDA-MB-231 breast = test system: MDA-MB-231 breast
UACC-257 melanoma = test system: UACC-257 melanoma
MOLT-4 leukemia = test system: MOLT-4 leukemia
A549 NSCLC = test system: A549 NSCLC
ACHN renal = test system: ACHN renal
UO-31 renal = test system: UO-31 renal
PC-3 prostate = test system: PC-3 prostate
IGROV1 ovarian = test system: IGROV1 ovarian
OVCAR-4 ovarian = test system: OVCAR-4 ovarian
U251 CNS = test system: U251 CNS
CCRF-CEM leukemia = test system: CCRF-CEM leukemia
NCI/ADR-RES ovarian = test system: NCI/ADR-RES ovarian
HCT-116 colon = test system: HCT-116 colon
MCF7 breast = test system: MCF7 breast
786-0 renal = test system: 786-0 renal
SF-295 CNS = test system: SF-295 CNS
EKVX NSCLC = test system: EKVX NSCLC
HCC-2998 colon = test system: HCC-2998 colon
RPMI-8226 leukemia = test system: RPMI-8226 leukemia
K-562 leukemia = test system: K-562 leukemia
M14 melanoma = test system: M14 melanoma
A498 renal = test system: A498 renal
MALME-3M melanoma = test system: MALME-3M melanoma
HS 578T breast = test system: HS 578T breast
HL-60(TB) leukemia = test system: HL-60(TB) leukemia
NCI-H460 lung = test system: NCI-H460 lung
NCI-H226 lung = test system: NCI-H226 lung
CAKI-1 renal = test system: CAKI-1 renal

CCc1nnc(CC)n1NCCCC(=O)O
TGI (RXF 393 renal): > 100 µM
TGI (LOX IMVI melanoma): > 100 µM
TGI (HCT-15 colon): > 100 µM
TGI (UACC-62 melanoma): > 100 µM
TGI (KM12 colon): > 100 µM
TGI (NCI-H522 lung): > 100 µM
TGI (MDA-N): > 100 µM
TGI (SK-OV-3 ovarian): > 100 µM
TGI (BT-549 breast): > 100 µM
TGI (HOP-92 NSCLC): > 100 µM
TGI (NCI-H23 lung): > 100 µM
TGI (DU-145 prostate): > 100 µM
TGI (SK-MEL-28 melanoma): > 100 µM
TGI (SK-MEL-5 melanoma): > 100 µM
TGI (HOP-62 NSCLC): > 100 µM
TGI (TK-10 renal): > 100 µM
TGI (HT29 colon): > 100 µM
TGI (MDA-MB-435): > 100 µM
TGI (SNB-19 CNS): > 100 µM
TGI (SNB-75 CNS): > 100 µM
TGI (OVCAR-3 ovarian): > 100 µM
TGI (OVCAR-5 ovarian): > 100 µM
TGI (SN12C renal): > 100 µM
TGI (COLO 205 colon): > 100 µM
TGI (SW-620 colon): > 100 µM
TGI (SF-268 CNS): > 100 µM
TGI (SK-MEL-2 melanoma): > 100 µM
TGI (SR leukemia): > 100 µM
TGI (SF-539 CNS): > 100 µM
TGI (OVCAR-8 ovarian): > 100 µM
TGI (MDA-MB-231 breast): > 100 µM
TGI (UACC-257 melanoma): > 100 µM
TGI (MOLT-4 leukemia): > 100 µM
TGI (A549 NSCLC): > 100 µM
TGI (ACHN renal): > 100 µM
TGI (UO-31 renal): > 100 µM
TGI (PC-3 prostate): > 100 µM
TGI (IGROV1 ovarian): > 100 µM
TGI (OVCAR-4 ovarian): > 100 µM
TGI (U251 CNS): > 100 µM
TGI (CCRF-CEM leukemia): > 100 µM
TGI (NCI/ADR-RES ovarian): > 100 µM
TGI (HCT-116 colon): > 100 µM
TGI (MCF7 breast): > 100 µM
TGI (786-0 renal): > 100 µM
TGI (SF-295 CNS): > 100 µM
TGI (EKVX NSCLC): > 100 µM
TGI (HCC-2998 colon): > 100 µM
TGI (RPMI-8226 leukemia): > 100 µM
TGI (K-562 leukemia): > 100 µM
TGI (M14 melanoma): > 100 µM

CN(C)c1ccc(-c2c(C#N)c(N)[nH]c(=S)c2C#N)cc1
TGI (A498 renal): 96.2 µM
TGI (RXF 393 renal): > 100 µM
TGI (LOX IMVI melanoma): > 100 µM
TGI (HCT-15 colon): > 100 µM
TGI (UACC-62 melanoma): > 100 µM
TGI (MALME-3M melanoma): > 100 µM
TGI (NCI-H522 lung): > 100 µM
TGI (MDA-N): > 100 µM
TGI (SK-OV-3 ovarian): > 100 µM
TGI (HS 578T breast): 35.7 µM
TGI (HL-60(TB) leukemia): > 100 µM
TGI (BT-549 breast): > 100 µM
TGI (HOP-92 NSCLC): > 100 µM
TGI (NCI-H23 lung): > 100 µM
TGI (DU-145 prostate): > 100 µM
TGI (SK-MEL-28 melanoma): > 100 µM
TGI (SK-MEL-5 melanoma): > 100 µM
TGI (HOP-62 NSCLC): > 100 µM
TGI (TK-10 renal): > 100 µM
TGI (HT29 colon): > 100 µM
TGI (MDA-MB-435): > 100 µM
TGI (NCI-H460 lung): > 100 µM
TGI (SNB-19 CNS): > 100 µM
TGI (SNB-75 CNS): > 100 µM
TGI (OVCAR-3 ovarian): > 100 µM
TGI (OVCAR-5 ovarian): > 100 µM
TGI (SN12C renal): > 100 µM
TGI (NCI-H226 lung): 92.2 µM
TGI (COLO 205 colon): > 100 µM
TGI (CAKI-1 renal): > 100 µM
TGI (SW-620 colon): > 100 µM
TGI (SF-268 CNS): > 100 µM
TGI (SK-MEL-2 melanoma): > 100 µM
TGI (SR leukemia): > 100 µM
TGI (SF-539 CNS): > 100 µM
TGI (OVCAR-8 ovarian): > 100 µM
TGI (MDA-MB-231 breast): > 100 µM
TGI (UACC-257 melanoma): > 100 µM
TGI (A549 NSCLC): > 100 µM
TGI (ACHN renal): > 100 µM
TGI (UO-31 renal): > 100 µM
TGI (PC-3 prostate): > 100 µM
TGI (IGROV1 ovarian): > 100 µM
TGI (OVCAR-4 ovarian): > 100 µM
TGI (U251 CNS): > 100 µM
TGI (CCRF-CEM leukemia): > 100 µM
TGI (NCI/ADR-RES ovarian): > 100 µM
TGI (HCT-116 colon): > 100 µM
TGI (MCF7 breast): > 100 µM
TGI (786-0 renal): > 100 µM
TGI (SF-295 CNS): > 100 µM
TGI (EKVX NSCLC): > 100 µM
TGI (HCC-2998 colon): > 100 µM
TGI (K-562 leukemia): > 100 µM
TGI (M14 melanoma): > 100 µM
